{"source": "patent US20060223846A1", "about": "“Aza-bridged-bicyclic amino acid derivatives as alpha4 integrin antagonists” (priority 2005, published 2006)", "key": {"α4β1": {"target": "α4β1 (Homo sapiens, UniProt P05556+P13612)", "sequence (P05556 21-798, one chain of several)": "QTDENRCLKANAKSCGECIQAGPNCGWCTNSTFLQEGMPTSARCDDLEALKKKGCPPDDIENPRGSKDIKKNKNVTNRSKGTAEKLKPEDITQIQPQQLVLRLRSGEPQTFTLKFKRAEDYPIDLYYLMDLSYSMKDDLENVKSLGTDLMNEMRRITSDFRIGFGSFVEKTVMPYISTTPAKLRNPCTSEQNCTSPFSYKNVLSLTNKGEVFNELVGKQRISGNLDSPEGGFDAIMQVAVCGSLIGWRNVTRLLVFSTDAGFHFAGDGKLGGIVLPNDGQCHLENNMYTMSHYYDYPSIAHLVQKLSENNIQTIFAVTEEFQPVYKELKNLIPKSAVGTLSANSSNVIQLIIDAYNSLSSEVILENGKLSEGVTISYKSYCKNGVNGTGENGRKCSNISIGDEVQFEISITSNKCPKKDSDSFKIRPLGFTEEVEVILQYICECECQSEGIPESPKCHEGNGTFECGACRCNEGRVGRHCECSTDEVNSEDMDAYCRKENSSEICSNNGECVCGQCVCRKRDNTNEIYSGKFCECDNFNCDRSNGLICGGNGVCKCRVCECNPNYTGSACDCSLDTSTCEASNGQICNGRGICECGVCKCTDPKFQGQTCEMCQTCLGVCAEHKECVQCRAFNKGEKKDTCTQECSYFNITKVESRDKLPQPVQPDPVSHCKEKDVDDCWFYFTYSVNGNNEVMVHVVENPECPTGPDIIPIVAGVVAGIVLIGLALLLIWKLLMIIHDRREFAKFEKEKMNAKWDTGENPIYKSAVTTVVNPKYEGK", "test": "Ramos Cell Adhesion Assay (α4β1 Mediated Adhesion/VCAM-1)", "format": "cell-based", "set-up": "Ramos cells, (50 μL at 2×10^6/mL) labeled with 5 μM Calcein AM; endogenous in cells; host or cells: Ramos cells", "conditions": "Ramos cells on recombinant hVCAM-1; read-out: α4β1 IC50", "summary_of_the_method": "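Ramos cells labeled with 5 μM Calcein AM adhered for 1 h at room temperature to wells coated with recombinant human VCAM-1 (4.0 μg/mL, pH 9.0) in presence of compounds. After washing, cells lysed in SDS buffer; fluorescence read at 485/530 nm.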"}, "human α4β7": {"target": "T1, human α4β7 (Homo sapiens, UniProt P13612+P26010)", "T1 construct": "expressed in transfected cells", "T1 sequence (P13612 34-1032)": "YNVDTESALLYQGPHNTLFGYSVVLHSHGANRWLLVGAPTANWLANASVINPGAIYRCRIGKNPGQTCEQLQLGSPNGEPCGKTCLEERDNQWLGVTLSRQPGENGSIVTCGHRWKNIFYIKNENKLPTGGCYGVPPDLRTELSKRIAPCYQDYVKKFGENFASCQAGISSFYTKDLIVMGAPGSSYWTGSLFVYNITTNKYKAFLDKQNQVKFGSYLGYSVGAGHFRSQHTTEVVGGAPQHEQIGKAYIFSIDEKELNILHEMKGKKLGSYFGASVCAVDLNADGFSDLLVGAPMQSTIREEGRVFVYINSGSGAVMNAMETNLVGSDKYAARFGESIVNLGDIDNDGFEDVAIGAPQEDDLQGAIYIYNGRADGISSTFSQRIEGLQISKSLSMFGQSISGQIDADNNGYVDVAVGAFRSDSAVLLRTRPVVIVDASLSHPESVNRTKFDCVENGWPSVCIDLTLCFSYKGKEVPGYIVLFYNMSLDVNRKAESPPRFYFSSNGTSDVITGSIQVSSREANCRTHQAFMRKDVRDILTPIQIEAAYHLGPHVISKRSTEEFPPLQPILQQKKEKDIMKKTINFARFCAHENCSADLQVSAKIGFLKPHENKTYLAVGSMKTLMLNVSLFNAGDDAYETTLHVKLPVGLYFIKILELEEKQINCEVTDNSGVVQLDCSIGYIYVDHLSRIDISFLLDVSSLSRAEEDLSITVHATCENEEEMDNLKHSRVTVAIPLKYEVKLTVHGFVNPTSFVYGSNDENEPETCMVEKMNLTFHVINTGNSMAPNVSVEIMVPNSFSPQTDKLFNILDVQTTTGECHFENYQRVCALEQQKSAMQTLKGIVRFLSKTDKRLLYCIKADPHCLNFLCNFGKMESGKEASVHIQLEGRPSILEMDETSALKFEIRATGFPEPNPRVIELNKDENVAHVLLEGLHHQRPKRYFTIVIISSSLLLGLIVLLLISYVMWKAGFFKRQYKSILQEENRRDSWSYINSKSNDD", "T1 sequence (P26010 20-798)": "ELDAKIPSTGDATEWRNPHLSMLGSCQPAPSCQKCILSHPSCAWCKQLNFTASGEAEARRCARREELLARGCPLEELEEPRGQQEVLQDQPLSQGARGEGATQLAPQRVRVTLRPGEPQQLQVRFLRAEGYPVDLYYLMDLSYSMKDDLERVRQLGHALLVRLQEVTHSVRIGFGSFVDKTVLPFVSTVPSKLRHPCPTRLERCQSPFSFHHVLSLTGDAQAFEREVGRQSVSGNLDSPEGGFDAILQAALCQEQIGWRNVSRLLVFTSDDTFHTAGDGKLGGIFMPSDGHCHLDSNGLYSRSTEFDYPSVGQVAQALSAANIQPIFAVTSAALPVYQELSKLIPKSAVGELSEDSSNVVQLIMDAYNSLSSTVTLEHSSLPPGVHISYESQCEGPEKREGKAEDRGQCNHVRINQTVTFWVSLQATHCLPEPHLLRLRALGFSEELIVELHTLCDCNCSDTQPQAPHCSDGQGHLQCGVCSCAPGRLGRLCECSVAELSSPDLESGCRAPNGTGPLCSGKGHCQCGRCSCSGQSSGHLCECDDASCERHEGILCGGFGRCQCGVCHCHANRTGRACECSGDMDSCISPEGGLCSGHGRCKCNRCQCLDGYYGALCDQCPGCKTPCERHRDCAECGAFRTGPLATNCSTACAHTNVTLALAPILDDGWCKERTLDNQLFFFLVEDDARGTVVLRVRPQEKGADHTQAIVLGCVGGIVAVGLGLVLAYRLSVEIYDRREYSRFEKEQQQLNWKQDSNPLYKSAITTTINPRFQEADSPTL", "test": "α4β7-K562 Cell Adhesion Assay (α4β7 Mediated Adhesion/VCAM-1)", "format": "cell-based", "conditions": "K562 cells expressing human α4β7 on recombinant hVCAM-1; read-out: α4β7 IC50", "summary_of_the_method": "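Calcein AM-labelled K562 cells stably expressing human α4β7 adhered for 1 h at room temperature, with compound, to wells coated with recombinant hVCAM-1 (4.0 μg/mL, pH 9.0) and blocked with PBS/1% BSA. After washing, cells were lysed in 1% SDS/Tris pH 8.0 and fluorescence read at 485/530 nm.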"}}}
{"smiles": "O=C(Nc1ccc(CC(NC(=O)C2C3CCC(CC3)N2C(=O)Cc2ccsc2)C(=O)O)cc1)c1c(Cl)cncc1Cl", "note": "(stereo not shown) [Cpd 3]", "values": [{"measurement": "IC50", "setting": "α4β1", "value": 43, "unit": "nM"}, {"measurement": "IC50", "setting": "human α4β7", "value": 41, "unit": "nM"}]}
{"smiles": "CC(C)(C)CCN1C2CCC(CC2)[C@H]1C(=O)N[C@@H](Cc1ccc(NC(=O)c2c(Cl)cncc2Cl)cc1)C(=O)O", "note": "[Cpd 16, 3-{4-[(3,5-dichloro-pyridine-4-carbonyl)-amino]-phenyl}-2-{[2-(3,3-dimethyl-butyl)-2-aza-bicyclo[2.2.2]octane-3-carbonyl]-amino}-propionic acid]", "values": [{"measurement": "IC50", "setting": "α4β1", "value": 47, "unit": "nM"}, {"measurement": "IC50", "setting": "human α4β7", "value": 94, "unit": "nM"}]}
